# Assay results from patent publication US12600732B2, “Bifunctional compounds for degrading BTK via ubiquitin proteosome pathway” (NURIX THERAPEUTICS, INC., priority 2019, dated 2026).
# Columns and labels:
# BTK = molecular target: T1, BTK (Mus musculus, UniProt P35991); experiment: In vivo degradation of BTK in mouse PD experiments with oral dosing
# T1 construct: from tissue; host or cells: mouse blood B cells / splenocytes (CD-1 or BALB/c)
# Procedure: A method of determining the pharmacodynamic profile of BTK degraders was performed by dosing either CD-1 or BALB/c mice with CTM. The CTM was prepared in a suitable formulation and was administered via oral gavage (PO) at a suitable dose level and frequency as informed by prior pharmacokinetic and tolerability studies. Following administration of CTM, BTK levels in blood or splenocytes are measured using flow cytometry or HTRF. For assessment of BTK levels via flow cytometry, either whole blood or splenocytes were first treated with ACK RBC lysis buffer to facilitate lysing of red blood cells. Remaining cells were then stained with fluorophore-conjugated antibodies against CD45, TCR beta and CD45R (B220). Cell pellets were washed with 1×PBS, fixed, and permeabilized for twenty-four hours with Foxp3/Transcription Factor Fixation/Permeabilization Kit. Cells were then stained intracellularly with unconjugated BTK antibody and detected with a fluorophore-conjugated secondary antibody. Stained cells were run on an Attune N×T Acoustic Focusing Flow Cytometer (Thermo-Fisher A29004), and data was analyzed using FlowJo (v10.5.3) and GraphPad Prism (v7.00) software. Lymphocytes were gated for B cells defined as CD45+ TCR beta−B220+ and T cells as CD45+ TCR beta+B220−. The BTK geometric mean fluorescence intensity (MFI) was calculated for B and T cells. Percent BTK degradation for each compound-treated sample was calculated using the equation described below: % Degradation=100*(Treated sample B cell BTK MFI-treated sample T cell BTK MFI)/Vehicle B cell BTK MFI-Vehicle T cell BTK MFI)
# This example evaluates in vivo activity of BTK CTMs via a direct mouse PD measurement following oral dosing
# Screens were completed at 90 mg/kg for six hours, and then changed to lower doses/longer time points after seeing strong BTK degradation activity with an initial set of compounds. This assay was useful in selecting compounds for in vivo efficacy experiments.
# TMD8 C481S cells = experiment: Cell viability assay (CellTiter-Glo), TMD8 C481S cells; settings: for EC50: Homo sapiens, TMD8, 72 h; for EMAX (% viable cells): TMD8 C481S cells, treatment time 72 h
# TMD8 cells = experiment: Cell viability assay (CellTiter-Glo), TMD8 cells; settings: for EC50: Homo sapiens, TMD8, 72 h; for EMAX (% viable cells): TMD8 cells, treatment time 72 h
# [1] = oral dose 3 mg/kg, 6 h, blood, flow cytometry
# [2] = oral dose 90 mg/kg, 6 h, splenocytes, HTRF
# [3] = oral dose 30 mg/kg, 24 h, blood, flow cytometry
# [4] = oral dose 1 mg/kg, 6 h, splenocytes, HTRF
# T1 sequence (P35991 whole entry): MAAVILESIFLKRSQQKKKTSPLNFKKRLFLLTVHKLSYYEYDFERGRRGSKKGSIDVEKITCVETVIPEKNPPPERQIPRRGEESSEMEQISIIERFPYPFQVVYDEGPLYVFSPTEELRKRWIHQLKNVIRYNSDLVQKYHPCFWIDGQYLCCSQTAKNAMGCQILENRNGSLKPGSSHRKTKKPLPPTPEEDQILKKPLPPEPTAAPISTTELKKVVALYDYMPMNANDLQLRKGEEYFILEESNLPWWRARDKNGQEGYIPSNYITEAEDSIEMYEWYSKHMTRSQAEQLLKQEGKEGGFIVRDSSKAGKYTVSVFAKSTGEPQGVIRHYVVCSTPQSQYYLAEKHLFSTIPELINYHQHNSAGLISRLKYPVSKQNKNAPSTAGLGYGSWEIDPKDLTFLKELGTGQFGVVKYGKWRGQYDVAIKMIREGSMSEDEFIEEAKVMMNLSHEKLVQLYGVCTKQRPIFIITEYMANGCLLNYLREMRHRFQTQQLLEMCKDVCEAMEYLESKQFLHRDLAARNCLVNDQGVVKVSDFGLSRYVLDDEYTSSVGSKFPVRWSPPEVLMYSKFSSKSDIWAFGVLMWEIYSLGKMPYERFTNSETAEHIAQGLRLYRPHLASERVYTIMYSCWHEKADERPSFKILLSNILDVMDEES
Compound,EC50 (TMD8 C481S cells) [nM],EMAX (% viable cells) (TMD8 C481S cells) [%],EC50 (TMD8 cells) [nM],EMAX (% viable cells) (TMD8 cells) [%],% BTK Remaining (BTK; [2]) [%],further results
Cn1cc(Nc2nc(N3CCC[C@@H](N4CC5(CN(C6CCN(c7ccc8c(c7)C(=O)N([C@H]7CCC(=O)NC7=O)C8=O)CC6)C5)OC4=O)C3)cnc2C(N)=O)cn1 [Compound 212],63,44,15.1,42,,% BTK Remaining (BTK; [1]): 78%
CN1CCN([C@@H]2CCCN(c3cnc(C(N)=O)c(Nc4ccc(N5CCN(C[C@@H]6CCN(c7ccc8c(c7)C(=O)N(C7CCC(=O)NC7=O)C8=O)C6)CC5)cc4)n3)C2)C1=O (stereo partly drawn) [Compound 59],2.03,52,0.15,31,7,
CN1CCN([C@@H]2CCCN(c3cnc(C(N)=O)c(Nc4ccc(N5CCN(CC6CN(c7ccc8c(c7)C(=O)N(C7CCC(=O)NC7=O)C8=O)C6)CC5)cc4)n3)C2)C1=O (stereo partly drawn) [Compound 60],8.37,26,0.97,20,3,
CN1CCN([C@@H]2CCCN(c3cnc(C(N)=O)c(Nc4ccc(C5CCN(c6ccc7c(c6)C(=O)N(C6CCC(=O)NC6=O)C7=O)CC5)cc4)n3)C2)C1=O (stereo partly drawn) [Compound 47],43.5,61,3.83,39,80,
CN1CCN([C@@H]2CCCN(c3cnc(C(N)=O)c(Nc4ccc(C5CCN(CC6CN(c7ccc8c(c7)C(=O)N(C7CCC(=O)NC7=O)C8=O)C6)CC5)cc4)n3)C2)C1=O (stereo partly drawn) [Compound 54],7.11,6,0.61,13,1,
CN1CCN([C@@H]2CCCN(c3cnc(C(N)=O)c(Nc4ccc(N5CCN(C[C@H]6CCN(c7ccc8c(c7)C(=O)N(C7CCC(=O)NC7=O)C8=O)C6)CC5)cc4)n3)C2)C1=O (stereo partly drawn) [Compound 42],1.96,57,0.217,40,5,
CN1CCN([C@H]2CCCN(c3cnc(C(N)=O)c(Nc4ccc(N5CCC6(CCN(c7ccc8c(c7)C(=O)N(C7CCC(=O)NC7=O)C8=O)CC6)CC5)nc4)n3)C2)C1=O (stereo partly drawn) [Compound 80],125,78,45.2,45,,"% BTK Remaining (BTK; oral dose 0.3 mg/kg, 24 h, blood, flow cytometry): 88%; % BTK Remaining (BTK; oral dose 0.3 mg/kg, 24 h, splenocytes, flow cytometry): 115%; % BTK Remaining (BTK; [1]): 96%; % BTK Remaining (BTK; oral dose 3 mg/kg, 24 h, blood, flow cytometry): 77%; % BTK Remaining (BTK; oral dose 3 mg/kg, 24 h, splenocytes, flow cytometry): 111%; % BTK Remaining (BTK; oral dose 10 mg/kg, 24 h, blood, flow cytometry): 59%; % BTK Remaining (BTK; oral dose 10 mg/kg, 24 h, splenocytes, flow cytometry): 74%; % BTK Remaining (BTK; [3]): 52%; % BTK Remaining (BTK; oral dose 30 mg/kg, 24 h, splenocytes, flow cytometry): 69%; % BTK Remaining (BTK; oral dose 90 mg/kg, 24 h, blood, flow cytometry): 48%; % BTK Remaining (BTK; oral dose 90 mg/kg, 24 h, splenocytes, flow cytometry): 65%"
CN1CCN([C@@H]2CCCN(c3cnc(C(N)=O)c(Nc4ccc(N5CCN(CC6CCN(c7ccc8c(c7)C(=O)N(C7CCC(=O)NC7=O)C8=O)CC6)CC5)cc4)n3)C2)C1=O (stereo partly drawn) [Compound 49],3.86,23,0.61,28,<1,
"Cn1cc(Nc2nc(N3CCC[C@@H](N4CC5(CN(CC6CCN(c7ccc8c(c7)C(=O)N(C7CCC(=O)NC7=O)C8=O)CC6)C5)OC4=O)C3)cnc2C(N)=O)cn1 (stereo partly drawn) [compound 211, 5-[(3R)-3-[2-({1-[2-(2,6-dioxopiperidin-3-yl)-1,3-dioxoisoindol-5-yl]piperidin-4-yl}methyl)-6-oxo-5-oxa-2,7-diazaspiro[3.4]octan-7-yl]piperidin-1-yl]-3-[(1-methylpyrazol-4-yl)amino]pyrazine-2-carboxamide]",113,28,11.7,30,,% BTK Remaining (BTK; [1]): 74%
CN1CCN([C@@H]2CCCN(c3cnc(C(N)=O)c(Nc4ccc(N5CCC6(CCN(Cc7ccc8c(c7)CN([C@@H]7CCC(=O)NC7=O)C8=O)CC6)CC5)cc4)n3)C2)C1=O [Compound 210],5.29,40,5.61,32,,
CN1CCN([C@@H]2CCCN(c3cnc(C(N)=O)c(Nc4ccc(C5CCN(C[C@H]6CCN(c7ccc8c(=O)n(C9CCC(=O)NC9=O)ccc8c7)C6)CC5)cc4)n3)C2)C1=O (stereo partly drawn) [Compound 115],1.93,16,2.74,13,,% BTK Remaining (BTK; [3]): 30%
CN1CCN([C@@H]2CCCN(c3cnc(C(N)=O)c(Nc4ccc(C5CCN(C[C@H]6CCN(c7ccc8c(c7)n(C)c(=O)n8[C@@H]7CCC(=O)NC7=O)C6)CC5)cc4)n3)C2)C1=O [Compound 198],,,,,,% BTK Remaining (BTK; [3]): 25%
"Cn1cc(Nc2nc(N3CCC[C@@H](N4CC5(CN(CC6CN(c7ccc8c(c7)C(=O)N(C7CCC(=O)NC7=O)C8=O)C6)C5)OC4=O)C3)cnc2C(N)=O)cn1 (stereo partly drawn) [compound 213, 5-((3R)-3-(2-((1-(2-(2,6-dioxopiperidin-3-yl)-1,3-dioxoisoindolin-5-yl)azetidin-3-yl)methyl)-6-oxo-5-oxa-2,7-diazaspiro[3.4]octan-7-yl)piperidin-1-yl)-3-((1-methyl-1H-pyrazol-4-yl)amino)pyrazine-2-carboxamide]",,,,,,% BTK Remaining (BTK; [1]): 97%
CN1CCN([C@@H]2CCCN(c3cnc(C(N)=O)c(Nc4ccc(C5CCN(C[C@H]6CCCN(c7ccc8c(c7)C(=O)N(C7CCC(=O)NC7=O)C8=O)C6)CC5)cc4)n3)C2)C1=O (stereo partly drawn) [Compound 50],,,,,9,
CN1CCN([C@@H]2CCCN(c3cnc(C(N)=O)c(Nc4ccc(C5(C)CCN(c6ccc7c(c6)C(=O)N(C6CCC(=O)NC6=O)C7=O)CC5)cc4)n3)C2)C1=O (stereo partly drawn) [Compound 58],,,,,89,
CN1CCN([C@@H]2CCCN(c3cnc(C(N)=O)c(Nc4ccc(C5CCN(C[C@H]6CCN(c7ccc8c(c7)C(=O)N([C@@H]7CCC(=O)NC7=O)C8=O)C6)CC5)nc4)n3)C2)C1=O [Compound 207],0.009,54,,,,"% BTK Remaining (BTK; oral dose 30 mg/kg, 24 h, splenocytes, HTRF): 46%"
CN1CCN([C@@H]2CCCN(c3cnc(C(N)=O)c(Nc4cnn(C5CN(CC6CCN(c7ccc8c(c7)C(=O)N([C@@H]7CCC(=O)NC7=O)C8=O)CC6)C5)c4)n3)C2)C1=O [Compound 209],55.2,44,7.41,49,,
CN1CCN([C@@H]2CCCN(c3cnc(C(N)=O)c(Nc4ccc(C5CCN(C[C@@H]6[C@H]7CN(c8ccc9c(c8)C(=O)N(C8CCC(=O)NC8=O)C9=O)C[C@@H]67)CC5)cc4)n3)C2)C1=O (stereo partly drawn) [Compound 39],,,,,,% BTK Remaining (BTK; [4]): 79%
CN1CCN([C@@H]2CCCN(c3cnc(C(N)=O)c(Nc4cc5n(n4)CCN(C[C@H]4CCN(c6ccc7c(c6)C(=O)N(C6CCC(=O)NC6=O)C7=O)C4)C5)c3)C2)C1=O (stereo partly drawn) [Compound 214],,,,,,% BTK Remaining (BTK; [1]): 100%
CN1CCN([C@@H]2CCCN(c3cnc(C(N)=O)c(Nc4ccc(N5CC6CN(Cc7ccc8c(c7)C(=O)N(C7CCC(=O)NC7=O)C8=O)CC6C5)cc4)n3)C2)C1=O (stereo partly drawn) [Compound 76],,,,,,% BTK Remaining (BTK; [4]): 100%
